The values that follow come from patent publication US20240400555A1 (Initial Therapeutics, Inc., priority 2023, published 2024).

For orientation: IC50 means the concentration that gives 50% inhibition.

The test system of this test is MV-4-11 cells. In words: Cell Viability Assay in MV-4-11 Cells. In kind it is cell-based. As to conditions: Homo sapiens, MV4-11, 72 h, MV-4-11 cells, 72 h, Cell-Titer Glo; read-out: IC50. The procedure, abridged:
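MV-4-11 cells at 7,000/well in IMDM with 10% FBS, exposed to compound for 72 h. Viability by CellTiter-Glo luminescence, normalized to DMSO as 100%, fitted with a four-parameter curve.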
`COCCn1cc(-c2ccc(C(=O)N(c3nccc4scc(C)c34)[C@@H]3CCCNC3)cn2)nn1` [Example 638, (R)-6-(1-(2-methoxyethyl)-1H-1,2,3-triazol-4-yl)-N-(3-methylthieno[3,2-c]pyridin-4-yl)-N-(piperidin-3-yl)nicotinamide]: the IC50 came out at 47 nM. Regarding `COCCn1cc(-c2ccc(C(=O)N(c3nccc4scc(C)c34)[C@@H]3CCCNC3)cc2)nn1` [Example 639, (R)-4-(1-(2-methoxyethyl)-1H-1,2,3-triazol-4-yl)-N-(3-methylthieno[3,2-c]pyridin-4-yl)-N-(piperidin-3-yl)benzamide], the half-maximal inhibitory concentration (IC50) came out at 150 nM.

As for `COCCn1cc(-c2ccc(C(=O)N(c3nccc4scc(C)c34)[C@@H]3CCCNC3)c(F)c2)nn1` [Example 640, (R)-2-fluoro-4-(1-(2-methoxyethyl)-1H-1,2,3-triazol-4-yl)-N-(3-methylthieno[3,2-c]pyridin-4-yl)-N-(piperidin-3-yl)benzamide], the half-maximal inhibitory concentration (IC50) was 85 nM. For `Cc1cc(C)c2c(N(C(=O)c3ccc(-c4nnc(C)s4)cc3F)[C@@H]3CCCNC3)nccc2c1` [Example 641, (R)—N-(6,8-dimethylisoquinolin-1-yl)-2-fluoro-4-(5-methyl-1,3,4-thiadiazol-2-yl)-N-(piperidin-3-yl)benzamide], the IC50 is 56 nM. In the case of `Cc1cc(C)c2c(N(C(=O)c3ccc(-c4nnc(C)o4)nc3)[C@@H]3CCCNC3)nccc2c1` [Example 642, (R)—N-(6,8-dimethylisoquinolin-1-yl)-6-(5-methyl-1,3,4-oxadiazol-2-yl)-N-(piperidin-3-yl)nicotinamide] it was 160 nM; in that of `Cc1cc(C)c2c(N(C(=O)c3ccc(-c4nnc(C)o4)cc3F)[C@@H]3CCCNC3)nccc2c1` [Example 643, (R)—N-(6,8-dimethylisoquinolin-1-yl)-2-fluoro-4-(5-methyl-1,3,4-oxadiazol-2-yl)-N-(piperidin-3-yl)benzamide], 64 nM; in that of `Cc1cccc2ccnc(N(C(=O)c3ccc(N4CCOC(C)(C)C4)cc3F)[C@@H]3CCCNC3)c12` [Example 644, 4-(2,2-dimethylmorpholin-4-yl)-2-fluoro-N-(8-methyl-1-isoquinolyl)-N-[(3R)-3-piperidyl] benzamide], over 6300 nM. For the compound `Cc1cccc2ccnc(N(C(=O)c3ccc(N4CCOc5ccccc54)cc3F)[C@@H]3CCCNC3)c12` [Example 645, 4-(2,3-dihydro-1,4-benzoxazin-4-yl)-2-fluoro-N-(8-methyl-1-isoquinolyl)-N-[(3R)-3-piperidyl] benzamide], the half-maximal inhibitory concentration (IC50) is 2400 nM. In the case of `Cc1cccc2ccnc(N(C(=O)c3ccc(N4CCOc5cccnc54)cc3F)[C@@H]3CCCNC3)c12` [Example 646, 4-(2,3-dihydropyrido[3,2-b][1,4]oxazin-4-yl)-2-fluoro-N-(8-methyl-1-isoquinolyl)-N-[(3R)-3-piperidyl]benzamide] it was 2200 nM.

For the compound `Cc1nnc(-c2ccc(C(=O)N(c3nccc4cc(F)cc(C)c34)[C@@H]3CCCNC3)cn2)s1` [Example 647, N-(6-fluoro-8-methyl-1-isoquinolyl)-6-(5-methyl-1,3,4-thiadiazol-2-yl)-N-[(3R)-3-piperidyl] pyridine-3-carboxamide], the IC50 turned out to be 130 nM.

For the compound `Cc1cc(C)c2c(N(C(=O)c3ccc(-c4nnc(C)s4)nc3)[C@@H]3CCCNC3)nccc2c1` [Example 648, (R)—N-(6,8-dimethylisoquinolin-1-yl)-6-(5-methyl-1,3,4-thiadiazol-2-yl)-N-(piperidin-3-yl)nicotinamide], the 50% inhibitory concentration (IC50) was 39 nM. In the case of `CCc1nnc(-c2ccc(C(=O)N(c3nccc4scc(C)c34)[C@@H]3CCCNC3)c(F)c2)o1` [Example 649, (R)-4-(5-ethyl-1,3,4-oxadiazol-2-yl)-2-fluoro-N-(3-methylthieno[3,2-c]pyridin-4-yl)-N-(piperidin-3-yl)benzamide], the IC50 was 170 nM. In the case of `Cc1cc(F)cc2ccnc(N(C(=O)c3ccc(-c4nnc(O)s4)cc3F)[C@@H]3CCCNC3)c12` [Example 650, 2-fluoro-N-(6-fluoro-8-methyl-1-isoquinolyl)-4-(5-hydroxy-1,3,4-thiadiazol-2-yl)-N-[(3R)-3-piperidyl]benzamide] it was 3600 nM; in that of `C=C(C)c1csc2ccnc(N(C(=O)c3ccc(-c4nnc(C)s4)cc3F)[C@@H]3CCCNC3)c12` [Example 651, 2-fluoro-N-(3-isopropenylthieno[3,2-c]686yridine-4-yl)-4-(5-methyl-1,3,4-thiadiazol-2-yl)-N-[(3R)-3-piperidyl]benzamide], 460 nM; in that of `C#Cc1csc2ccnc(N(C(=O)c3ccc(-c4nnc(C)s4)cc3F)[C@@H]3CCCNC3)c12` [Example 652, N-(3-ethynylthieno[3,2-c]pyridine-4-yl)-2-fluoro-4-(5-methyl-1,3,4-thiadiazol-2-yl)-N-[(3R)-3-piperidyl] benzamide], 180 nM.

On to `Cc1nnc(-c2ccc(C(=O)N(c3nccc4scc(Cl)c34)[C@@H]3CCCNC3)c(F)c2)s1` [Example 653, N-(3-chlorothieno[3,2-c] 690yridine-4-yl)-2-fluoro-4-(5-methyl-1,3,4-thiadiazol-2-yl)-N-[(3R)-3-piperidyl] benzamide], for which the IC50 is 180 nM.

`CCc1nnc(-c2ccc(C(=O)N(c3nccc4cc(Cl)cc(C)c34)[C@@H]3CCCNC3)c(F)c2)o1` [Example 654, (R)—N-(6-chloro-8-methylisoquinolin-1-yl)-4-(5-ethyl-1,3,4-oxadiazol-2-yl)-2-fluoro-N-(piperidin-3-yl)benzamide]: the IC50 was found to be 150 nM. Regarding `Cc1cn(-c2ccc(C(=O)N(c3nccc4c(F)ccc(C)c34)[C@@H]3CCCNC3)c(F)c2)nn1` [Example 655, (R)-2-fluoro-N-(5-fluoro-8-methylisoquinolin-1-yl)-4-(4-methyl-1H-1,2,3-triazol-1-yl)-N-(piperidin-3-yl)benzamide], the IC50 was determined as 84 nM. Turning to `Cc1ccc(F)c2ccnc(N(C(=O)c3ccc(-c4cn(C)nn4)cc3)[C@@H]3CCCNC3)c12` [Example 656, (R)—N-(5-fluoro-8-methylisoquinolin-1-yl)-4-(1-methyl-1H-1,2,3-triazol-4-yl)-N-(piperidin-3-yl)benzamide], the IC50 turned out to be 180 nM. With `CCc1nnc(-c2ccc(C(=O)N(c3nccc4c(F)ccc(C)c34)[C@@H]3CCCNC3)c(F)c2)s1` [Example 657, (R)-4-(5-ethyl-1,3,4-thiadiazol-2-yl)-2-fluoro-N-(5-fluoro-8-methylisoquinolin-1-yl)-N-(piperidin-3-yl)benzamide] the figure was 170 nM; with `Cc1cc(C2CCN(C(=O)N(c3nccc4cc(F)cc(C)c34)[C@@H]3CCCNC3)CC2)on1` [Example 658, (R)—N-(6-fluoro-8-methylisoquinolin-1-yl)-4-(3-methylisoxazol-5-yl)-N-(piperidin-3-yl)piperidine-1-carboxamide], 610 nM; with `Cc1cc(C2CCN(C(=O)N(c3nccc4c(F)ccc(C)c34)[C@@H]3CCCNC3)CC2)on1` [Example 659, (R)—N-(5-fluoro-8-methylisoquinolin-1-yl)-4-(3-methylisoxazol-5-yl)-N-(piperidin-3-yl)piperidine-1-carboxamide], 510 nM. For the compound `Cc1nnc(-c2ccc(C(=O)N(c3nccc4c(F)ccc(C)c34)[C@@H]3CCCNC3)c(F)c2)o1` [Example 660, (R)-2-fluoro-N-(5-fluoro-8-methylisoquinolin-1-yl)-4-(5-methyl-1,3,4-oxadiazol-2-yl)-N-(piperidin-3-yl)benzamide], the 50% inhibitory concentration (IC50) came to 200 nM. `Cc1ccc(F)c2ccnc(N(C(=O)c3ccc(Nc4ncccn4)cc3F)[C@@H]3CCCNC3)c12` [Example 661, (R)-2-fluoro-N-(5-fluoro-8-methylisoquinolin-1-yl)-N-(piperidin-3-yl)-4-(pyrimidin-2-ylamino)benzamide]: the half-maximal inhibitory concentration (IC50) was found to be 170 nM.

In the case of `Cc1cccc2ccnc(N(C(=O)c3ccc(Nc4nccc(C5CCNCC5)n4)cc3F)[C@@H]3CCCNC3)c12` [Example 662, (R)-2-fluoro-N-(8-methylisoquinolin-1-yl)-N-(piperidin-3-yl)-4-((4-(piperidin-4-yl)pyrimidin-2-yl)amino)benzamide], the IC50 was 400 nM.

As to `Cc1cccc2ccnc(N(C(=O)c3ccc(Nc4nccc(C5CCOCC5)n4)cc3F)[C@@H]3CCCNC3)c12` [Example 663, (R)-2-fluoro-N-(8-methylisoquinolin-1-yl)-N-(piperidin-3-yl)-4-((4-(tetrahydro-2H-pyran-4-yl)pyrimidin-2-yl)amino)benzamide], the IC50 came to 110 nM. On to `Cc1nnc(-c2ccc(C(=O)N(c3nccc4c(Cl)cn(C)c34)[C@@H]3CCCNC3)c(F)c2)s1` [Example 664, (R)—N-(3-chloro-1-methyl-1H-pyrrolo[2,3-c]pyridin-7-yl)-2-fluoro-4-(5-methyl-1,3,4-thiadiazol-2-yl)-N-(piperidin-3-yl)benzamide], for which the half-maximal inhibitory concentration (IC50) is 200 nM. Regarding `Cc1cccc2ccnc(N(C(=O)c3ccc(Nc4nccc(C5=CCNCC5)n4)cc3F)[C@@H]3CCCNC3)c12` [Example 665, (R)-2-fluoro-N-(8-methylisoquinolin-1-yl)-N-(piperidin-3-yl)-4-((4-(1,2,3,6-tetrahydropyridin-4-yl)pyrimidin-2-yl)amino)benzamide], the half-maximal inhibitory concentration (IC50) was 250 nM.

Turning to `CCc1nnc(-c2ccc(C(=O)N(c3nccc4sc(C)nc34)[C@@H]3CCCNC3)c(F)c2)s1` [Example 667, (R)-4-(5-ethyl-1,3,4-thiadiazol-2-yl)-2-fluoro-N-(2-methylthiazolo[4,5-c]pyridin-4-yl)-N-(piperidin-3-yl)benzamide], the IC50 came out at 55 nM.

Consider `CCc1nnc(-c2ccc(C(=O)N(c3nccc4scc(Cl)c34)[C@@H]3CCCNC3)nc2)s1` [Example 668, N-(3-chlorothieno[3,2-c]pyridin-4-yl)-5-(5-ethyl-1,3,4-thiadiazol-2-yl)-N-[(3R)-3-piperidyl]pyridine-2-carboxamide], for which the IC50 turned out to be 250 nM. As for `CCc1nnc(-c2ccc(C(=O)N(c3nccc4c(C)csc34)[C@@H]3CCCNC3)nc2)s1` [Example 669, 5-(5-ethyl-1,3,4-thiadiazol-2-yl)-N-(3-methylthieno[2,3-c]pyridin-7-yl)-N-[(3R)-3-piperidyl]pyridine-2-carboxamide], the IC50 turned out to be 3200 nM.
